Source: patent US9783530B2, “Factor Xla inhibitors” (Merck Sharp & Dohme Corp., priority 2014, dated 2017)

Experiments:
[1] = target: purified human Factor XIa (Homo sapiens (Human), UniProt P03951); experiment: Factor XIa Assay; type: biochemical; settings: purified human Factor XIa 40 pM, substrate Z-Gly-Pro-Arg-AFC, pH 7.4; read-out: FXIa IC50
Description: The effectiveness of a compound of the present invention as an inhibitor of Coagulation Factor XIa can be determined using a relevant purified serine protease, and an appropriate synthetic substrate. The rate of hydrolysis of the chromogenic or fluorogenic substrate by the relevant serine protease was measured both in the absence and presence of compounds of the present invention. Assays were conducted at room temperature or at 37° C. […] A decrease in the rate of fluorescence change in the presence of inhibitor is indicative of enzyme inhibition. Such methods are known to one skilled in the art. […]
Factor XIa determinations were made in 50 mM HEPES buffer at pH 7.4 containing 150 mM NaCl, 5 mM CaCl2, and 0.1% PEG 8000 (polyethylene glycol; JT Baker or Fisher Scientific). Determinations were made using purified human Factor XIa at a final concentration of 40 pM (Sekisui Diagnostics) and he synthetic substrate, Z-Gly-Pro-Arg-AFC, TFA salt (Sigma #C0980) at a concentration of 100 µM.
Activity assays were performed by diluting a stock solution of substrate at least tenfold to a final concentration ≦0.1 Km into a solution containing enzyme or enzyme equilibrated with inhibitor. Times required to achieve equilibration between enzyme and inhibitor were determined in control experiments. Initial velocities of product formation in the absence (Vo) or presence of inhibitor (Vi) were measured. Assuming competitive inhibition, and that unity is negligible compared Km/[S], [I]/e, and [I]/e (where [S], [I], and e respectively represent the total concentrations, of substrate, inhibitor and enzyme), the equilibrium constant (Ki) for dissociation of the inhibitor from the enzyme can be obtained from the dependence of Vo/Vi on [I] shown in the following equation.

[2] = target: purified Human plasma kallikrein (Homo sapiens (Human), UniProt P03952); experiment: Kallikrein Assay; type: biochemical; settings: purified Human plasma kallikrein 0.5 nM, substrate Acetyl-K-P-R-AFC, pH 7.4; read-out: P. KLK IC50
Chain of purified Human plasma kallikrein (P03952 391-638): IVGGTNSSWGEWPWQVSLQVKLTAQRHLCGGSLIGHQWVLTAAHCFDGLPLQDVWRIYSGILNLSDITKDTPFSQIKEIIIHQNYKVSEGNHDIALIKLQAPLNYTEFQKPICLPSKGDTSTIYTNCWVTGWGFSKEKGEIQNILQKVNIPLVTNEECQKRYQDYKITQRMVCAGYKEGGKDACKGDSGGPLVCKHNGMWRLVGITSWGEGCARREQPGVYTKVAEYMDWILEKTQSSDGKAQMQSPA
Chain of purified Human plasma kallikrein (P03952 20-390 partner): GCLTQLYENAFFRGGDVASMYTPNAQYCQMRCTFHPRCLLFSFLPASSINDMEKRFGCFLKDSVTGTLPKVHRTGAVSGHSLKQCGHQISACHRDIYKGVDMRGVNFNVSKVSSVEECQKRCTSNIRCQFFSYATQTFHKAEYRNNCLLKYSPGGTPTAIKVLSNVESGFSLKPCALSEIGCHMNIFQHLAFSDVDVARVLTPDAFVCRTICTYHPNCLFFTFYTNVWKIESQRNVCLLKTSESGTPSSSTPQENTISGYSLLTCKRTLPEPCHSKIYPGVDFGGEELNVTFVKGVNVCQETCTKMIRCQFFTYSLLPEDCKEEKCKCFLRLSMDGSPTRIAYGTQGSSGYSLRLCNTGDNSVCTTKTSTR
Description: The effectiveness of a compound of the present invention as an inhibitor of Kallikrein can be determined using a relevant purified serine protease, and an appropriate synthetic substrate. The rate of hydrolysis of the chromogenic or fluorogenic substrate by the relevant serine protease was measured both in the absence and presence of compounds of the present invention. Assays were conducted at room temperature or at 37° C. […] A decrease in the rate of fluorescence change in the presence of inhibitor is indicative of enzyme inhibition. Such methods are known to one skilled in the art. The results of this assay are expressed as the inhibitory constant, Ki.
Kallikrein determinations were made in 50 mM HEPES buffer at pH 7.4 containing 150 mM NaCl, 5 mM CaCl2, and 0.1% PEG 8000 (polyethylene glycol; Fisher Scientific). Determinations were made using purified Human plasma kallikrein at a final concentration of 0.5 nM (Enzyme Research Laboratories) and the synthetic substrate, Acetyl-K-P-R-AFC (Sigma # C6608) at a concentration of […].
Activity assays were performed by diluting a stock solution of substrate at least tenfold to a final concentration ≦0.2 Km into a solution containing enzyme or enzyme equilibrated with inhibitor. Times required to achieve equilibration between enzyme and inhibitor were determined in control experiments. The reactions were performed under linear progress curve conditions and fluorescence increase measured at 405 Ex/510 Em nm. Values were converted to percent inhibition of the control reaction (after subtracting 100% Inhibition value). IC50 was determined by inflection point from a four parameter logistic curve fit. Ki was calculated using the Cheng Prusoff equation, Ki=IC50/(1+([S]/Km)).

Chain of purified human Factor XIa (P03951 388-625): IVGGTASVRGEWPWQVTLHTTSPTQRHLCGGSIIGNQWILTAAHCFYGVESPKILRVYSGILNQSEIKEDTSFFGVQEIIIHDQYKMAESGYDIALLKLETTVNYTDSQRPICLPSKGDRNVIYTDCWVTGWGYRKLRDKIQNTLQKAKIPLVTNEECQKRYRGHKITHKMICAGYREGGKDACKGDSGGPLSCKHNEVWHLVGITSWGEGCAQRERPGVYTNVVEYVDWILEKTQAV
Chain of purified human Factor XIa (P03951 19-387 partner): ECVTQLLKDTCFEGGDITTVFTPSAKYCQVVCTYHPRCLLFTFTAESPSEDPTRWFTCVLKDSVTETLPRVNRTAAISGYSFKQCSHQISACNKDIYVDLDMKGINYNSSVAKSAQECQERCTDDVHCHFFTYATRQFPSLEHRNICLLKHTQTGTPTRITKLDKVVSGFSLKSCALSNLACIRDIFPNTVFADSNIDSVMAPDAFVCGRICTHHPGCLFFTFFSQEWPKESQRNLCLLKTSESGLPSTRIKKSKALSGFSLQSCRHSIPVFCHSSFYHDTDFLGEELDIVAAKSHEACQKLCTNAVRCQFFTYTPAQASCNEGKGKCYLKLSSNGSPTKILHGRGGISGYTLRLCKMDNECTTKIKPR

| Structure (SMILES) | IC50 [1] [nM] | IC50 [2] [nM] |
| --- | --- | --- |
| COc1cc(C(Cc2ccccc2)C(=O)Nc2ccc(C(=O)O)cc2)[n+]([O-])cc1-c1cc(Cl)ccc1C#N (single isomer, unassigned) [Example 24, 2-(1-((4-carboxyphenyl)amino)-1-oxo-3-phenyl-propan-2-yl)-5-(5-chloro-2-cyanophenyl)-4-methoxypyridine 1-oxide] | 0.29 | 0.7 |
| O=C(O)c1ccc(NC(=O)[C@H](Cc2ccc(F)cc2)c2ccc(-c3cc(Cl)ccc3-n3cnnn3)c[n+]2[O-])cc1 [Example 8, 4-{[(2R)-2-{5-[5-chloro-2-(1H-tetrazol-1-yl)phenyl]-1-oxidopyridin-2-yl}-3-(4-fluorophenyl)propanoyl]amino}benzoic acid] | 0.26 | 3.4 |
| COC(=O)NC12CCC(NC(=O)C(Cc3ccccc3)c3ccc(-c4cc(Cl)ccc4-n4cnnn4)c[n+]3[O-])(CC1)CC2 (single isomer, unassigned) [Example 19, methyl {4-[(2-{5-[5-chloro-2-(1H-tetrazol-1-yl)phenyl]-1-oxidopyridin-2-yl}-3-phenylpropanoyl)amino]bicyclo[2.2.2]oct-1-yl}carbamate] | 4.1 | 9.2 |
| O=C(O)c1ccc(NC(=O)C(CC2CC2)c2ccc(-c3cc(Cl)ccc3-n3cnnn3)c[n+]2[O-])c(Cl)c1 (single isomer, unassigned) [Example 32, 3-chloro-4-[(2-{5-[5-chloro-2-(1H-tetrazol-1-yl)phenyl]-1-oxidopyridin-2-yl}-3-cyclopropylpropanoyl)amino]benzoic acid] | 3.37 | 692 |
| NCc1ccc(Cl)cc1-c1ccc(C(CC2CC2)C(=O)Nc2ccc(C(=O)O)cc2)[n+]([O-])c1 (racemic) [Example 40, 4-[(2-{5-[2-(aminomethyl)-5-chlorophenyl]-1-oxidopyridin-2-yl}-3-cyclopropylpropanoyl)amino]benzoic acid] | 30.6 | 1880 |
| O=C(O)c1ccc(NC(=O)C(CC2CC2)c2ccc(-c3cc(Cl)ccc3-n3ccnn3)c[n+]2[O-])cc1 (single isomer, unassigned) [Example 54, 4-[(2-{5-[5-chloro-2-(1H-1,2,3-triazol-1-yl)phenyl]-1-oxidopyridin-2-yl}-3-cyclopropylpropanoyl)amino]benzoic acid] | 4.7 | 678 |
| O=C(O)c1ccc(NC(=O)C(CC2CC2)c2ccc(-c3cc(Cl)ccc3-c3cnco3)c[n+]2[O-])cc1 (single isomer, unassigned) [Example 35, 4-[(2-{5-[5-chloro-2-(1,3-oxazol-5-yl)phenyl]-1-oxidopyridin-2-yl}-3-cyclopropylpropanoyl)amino]benzoic acid] | 5.65 | 408 |
| O=C(O)c1ccc(NC(=O)[C@@H](CC2CC2)c2ccc(-c3cc(Cl)ccc3-n3cnnn3)c[n+]2[O-])cc1 [Example 28, 4-{[(2S)-2-{5-[5-chloro-2-(1H-tetrazol-1-yl)phenyl]-1-oxidopyridin-2-yl}-3-cyclopropylpropanoyl]amino}benzoic acid] | 37 | 5820 |
| O=C(Cc1ccc(-c2c(F)ccc(Cl)c2F)c[n+]1[O-])Nc1ccc(C(=O)O)cc1 [Example 9, 4-({[5-(3-chloro-2,6-difluorophenyl)-1-oxidopyridin-2-yl]acetyl}amino) benzoic acid] | 89.2 | 1570 |
